Experimental findings from the METLIN SMRT retention time set (Domingo-Almenara et al. 2019) are described below.

Each structure is given as a SMILES string.

This data set in a line: gradient 5% acetonitrile 3 min, to 50% in 2 min, to 85% in 15 min, held 3 min, 100 µL/min. The conditions noted are these: column: Zorbax Extend-C18 2.1 x 50 mm; eluents: water / acetonitrile, 0.1% formic acid. The method in brief:
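Using water and acetonitrile that each contained 0.1% formic acid, mixtures of ~100 pure standards were separated at 100 μL/min on a Zorbax Extend-C18 column (2.1 × 50 mm, 1.8 μm). The HPLC fed a quadrupole time-of-flight mass spectrometer working in positive and negative ionization mode, with dead and dwell volumes of 40 μL and 900 μL. Data were acquired over 3 months. Retention time was read from computationally picked adduct peaks after manual inspection of each.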
`COc1ccccc1NC(=O)C1CC(=O)N(c2ccc3c(c2)CCN3C(=O)C2CC2)C1` (configuration not stated) gave an RP-LC retention time of 778 s.

`COCCCNC(=O)c1cccnc1N1CCNC(c2ccccc2)C1` (configuration not stated) showed an RP-LC retention time of 578 s.

For the compound `Cc1ccc(CNC(=O)c2nc3cccnc3n(CC(C)C)c2=O)cc1C`, the RP-LC retention time came to 1010 s.

As to `COc1cccc(C(=O)Nc2nnc(SC)s2)c1`, the RP-LC retention time came to 755 s.

As to `Cc1cc(C(=O)N2C[C@@H](F)C[C@H]2C(=O)N2CCc3ccccc3C2)n(C)n1`, the RP-LC retention time is 683 s.

In the case of `O=c1n(Cc2ccc3c(c2)OCO3)nc2c(S(=O)(=O)N3CCOCC3)cccn12`, the RP-LC retention time is 736 s.

Take `COc1cccc(C(=O)N2C[C@@H]3C[C@H](NC(=O)c4cccnc4)[C@H]2C3)c1OC`: the RP-LC retention time stood at 619 s.

For the compound `CCOc1ccc(NC(=O)N2CCN(Cc3nc4ccc(C)cc4o3)CC2)cc1`, the RP-LC retention time was found to be 733 s.

Take `O=S(=O)(c1ccc2c(c1)CCCN2)N1CCC[C@H]2CCCC[C@@H]21`: the RP-LC retention time amounted to 1190 s.

Compound `Cc1nn(C(C)C(=O)NCCCN2CCOCC2)c(=O)c2nn(-c3ccccc3)c(C)c12` (configuration not stated) displayed an RP-LC retention time of 615 s.

Turning to `CCOC(=O)c1ccc(NS(=O)(=O)c2cc(-c3c(CC)noc3NC(C)=O)ccc2OC)cc1`, the RP-LC retention time is 805 s.

`O=C(Nc1ccc(N2CCCN(C(=O)C3CC3)CC2)cc1)c1cncc(Br)c1` came in with an RP-LC retention time of 701 s.

As to `O=C(NCc1csc(-c2ccccc2)n1)C1CCN(S(=O)(=O)c2ccc(F)c(Cl)c2)CC1`, the RP-LC retention time was determined as 987 s.

In turn, `CCC(CO)NCc1ccc(-c2ccc(Cl)cc2Cl)o1` (configuration not stated) displayed an RP-LC retention time of 692 s.

`CCOC(=O)c1cc(S(=O)(=O)N2CCCC2C(=O)Nc2ccccc2C(F)(F)F)cn1C` (configuration not stated): the RP-LC retention time turned out to be 999 s.

In turn, `O=C(NCc1cccc(Cl)c1)C1CCCN(c2nccnc2Oc2ccccc2)C1` (configuration not stated) displayed an RP-LC retention time of 1020 s.

`CCOC(=O)c1cc(S(=O)(=O)N2CCCC2C(=O)Nc2ccc(C(C)C)cc2)cn1C` (configuration not stated) came in with an RP-LC retention time of 1070 s.

In turn, `Cc1nsc2ncc(C(=O)N3CCOCC3)c(N3CCC(C(=O)Nc4ccc(F)cc4Cl)CC3)c12` had an RP-LC retention time of 811 s.

`CCCn1cc(S(=O)(=O)NCc2ccccc2)c2cccnc21` had an RP-LC retention time of 863 s.

`CCC(=O)N1CCc2cc(N3CC(C(=O)NCc4ccccc4C)CC3=O)ccc21` (configuration not stated) displayed an RP-LC retention time of 750 s.

Compound `Cc1nnc(N2CCCC(C(=O)NCCC(C)C)C2)c2nn(-c3ccc(Cl)cc3)c(C)c12` (configuration not stated) had an RP-LC retention time of 783 s.

Turning to `CCn1cc(S(=O)(=O)N2C[C@H]3CN(S(=O)(=O)c4cccc(C)c4)C[C@@H](C2)O3)cn1`, the RP-LC retention time came out at 833 s.

`CN(C)CC1(O)CCC2(CCN(C(=O)c3ccsc3)CC2)CC1` gave an RP-LC retention time of 576 s.

In turn, `CCOc1ccc(N2CC(c3nnc(NC(=O)c4ccc(Cl)cc4)o3)CC2=O)cc1` (configuration not stated) returned an RP-LC retention time of 803 s.

`CCc1cccc(NC(=O)C2CCCN(S(=O)(=O)c3cc(-c4noc(CC)n4)cs3)C2)c1` (configuration not stated) gave an RP-LC retention time of 1090 s.

Turning to `O=c1c2scc(-c3ccc(F)cc3)c2ncn1CCOc1ccccc1`, the RP-LC retention time was found to be 1070 s.

The compound `CCOc1ccc(CC(=O)N2C[C@@H]3C[C@H](NC(=O)c4cccs4)[C@H]2C3)cc1` displayed an RP-LC retention time of 782 s.

The compound `CC1CCN(c2nc3c(c(=O)n(C)c(=O)n3C)n2Cc2ccccc2F)CC1` registered an RP-LC retention time of 1090 s.

`Cc1[nH]c(=O)[nH]c(=O)c1CCC(=O)Nc1cccc(-c2nc3ccccc3s2)c1` yielded an RP-LC retention time of 672 s.

In turn, `CCC(c1cccs1)N1C(=O)[C@H]2CN(S(=O)(=O)c3ccccc3)C[C@H]2C1=O` (some centres not stated) gave an RP-LC retention time of 946 s.

`Cn1ncc2c3ccccc3n(CCCC(=O)NCc3cccs3)c2c1=O` showed an RP-LC retention time of 817 s.

Consider `O=C(NCC(c1ccco1)N1CCN(c2ccccc2)CC1)Oc1ccccc1` (configuration not stated), for which the RP-LC retention time was 625 s.

Regarding `Cc1cc(NC(=O)Nc2ccc3c(c2)CCN3S(C)(=O)=O)ccc1Br`, the RP-LC retention time was 943 s.

`CCCN1CCN(Cc2nc3nc(C)cc(N4CCCCCC4)n3n2)CC1` had an RP-LC retention time of 587 s.

`COc1ccc(C(=O)NC2CCN(c3cc(-c4ccc(F)cc4)[nH]n3)C2)c(OC)c1` (configuration not stated) showed an RP-LC retention time of 740 s.

Turning to `COc1ccc(NC(=O)N2CCc3[nH]cnc3C2c2ccccn2)cc1OC` (configuration not stated), the RP-LC retention time came out at 568 s.

On to `CCn1c(=O)sc2cc(S(=O)(=O)N3CCC(C(=O)Nc4ccc(C)cn4)CC3)ccc21`, for which the RP-LC retention time amounted to 735 s.

The compound `CCn1c(=O)n(CC(=O)N(C)C2CCCCC2)c(=O)c2cnc(-c3ccccc3)nc21` yielded an RP-LC retention time of 1130 s.

With `Cc1nc(C)c(C(=O)N2C[C@H]3C[C@H](C2)[C@H]2CCCC(=O)N2C3)s1`, the RP-LC retention time came out at 755 s.

As to `CC(=O)N1CCc2c([nH]c3ccccc23)C12C(=O)N(CC(C)C)c1ccc(Br)cc12` (configuration not stated), the RP-LC retention time is 974 s.

As for `O=C(C1=CN(c2ccc(Cl)cc2)c2cc(F)ccc2S1(=O)=O)N1CCCC1`, the RP-LC retention time came to 858 s.

As for `COC(=O)c1ncn2c1C(=O)N(c1ccc(F)cc1)C(C)(C(=O)NCc1ccccc1)C2` (configuration not stated), the RP-LC retention time worked out at 691 s.

`CCc1cccc(NC(=O)Cn2nc3cc(C)nc(-c4ccccc4)n3c2=O)c1` gave an RP-LC retention time of 899 s.

`Cc1oc2ccn(Cc3ccc(F)cc3)c(=O)c2c1C(=O)NCC1CCCO1` (configuration not stated) showed an RP-LC retention time of 870 s.

As to `COc1ccccc1NC(=O)Cc1nnc(-c2ccc3ncccc3c2)o1`, the RP-LC retention time came out at 724 s.

Take `COc1ccc2nc(NC(=O)Nc3ccccc3)sc2c1`: the RP-LC retention time amounted to 966 s.

Compound `O=C(Cc1csc(-c2ccccc2F)n1)NCCc1c[nH]c2ccc(F)cc12` displayed an RP-LC retention time of 908 s.

Compound `O=C(c1cnc[nH]1)N1CC(F)(F)C[C@H]1c1nc(C2CC2)no1` displayed an RP-LC retention time of 630 s.

As to `CSc1ccc(-c2noc(Cn3nc(-c4ccccc4)ccc3=O)n2)cc1`, the RP-LC retention time was 1040 s.

In turn, `Cc1cc(=O)n(CC(=O)Nc2ccc(F)c(F)c2)c(N2CCCC2)n1` had an RP-LC retention time of 671 s.

Compound `COc1cccc2c(C)nc(NC3=NCN(Cc4ccc5c(c4)OCO5)CN3)nc12` returned an RP-LC retention time of 700 s.

`Cc1ccc(Cn2c(N3CCCC(C(=O)Nc4ccc(Cl)cc4)C3)nc3ccsc3c2=O)cc1` (configuration not stated): the RP-LC retention time worked out at 1160 s.

`CCc1ccccc1S(=O)(=O)N1CCC(C(=O)NCCc2csc(-c3cccs3)n2)CC1` showed an RP-LC retention time of 981 s.

Compound `O=C(Cn1c(=O)c2cc(-c3cccs3)nn2c2ncccc21)Nc1ccccc1F` showed an RP-LC retention time of 839 s.

In turn, `Cc1cc(C2CCCN2C(=O)Cc2cccc(Cl)c2)no1` (configuration not stated) registered an RP-LC retention time of 816 s.

As for `Fc1cccc(-c2nn3c(-c4ccc5ccccc5n4)nnc3s2)c1`, the RP-LC retention time stood at 987 s.

The compound `O=C(C1CCN(c2ncnc3c2oc2ccccc23)CC1)N1CCC(Cc2ccccc2)CC1` came in with an RP-LC retention time of 995 s.
